Source: patent US9572813B2, “Antiviral agent” (SHIONOGI & CO., LTD., priority 2001, dated 2017)
Where a name gives a salt, the structure may show the parent alone. Read-outs that look alike come from different tables or passages of the source.

Experiments:
integrase = integrase (Human immunodeficiency virus type 1 group M subtype B, UniProt P04585); assay: Integrase inhibition assay (microtiter plate strand transfer, substrate DNA/target DNA, anti-digoxigenin ELISA); format: biochemical; details: concentration of the compound at percent inhibition 50%, 30° C. for 1 hour, OD at 405 nm
Protocol: The inhibitory activities against integrase of the compounds in the present invention have been determined by the assay described below.
(1) Preparation of DNA Solutions.
Substrate DNA and target DNA, which sequences were indicated below, were synthesized by Amersham Pharmacia Biotech and dissolved in KTE buffer (composition: 100 mM KCl, 1 mM EDTA, 10 mM Tris-HCl (pH 7.6)) at concentration of 2 pmol/μl and 0.5 pmol/μl, respectively. The DNA solutions were annealed with each complement by slowly cooling after heating.
(2) Calculations of the Percent Inhibitions (the IC50 Values of Test Compounds)
Streptavidin, obtained from Vector Laboratories, was dissolved in 0.1 M carbonate buffer (composition: 90 mM Na2CO3, 10 mM NaHCO3) at concentration of 40 µg/ml. After coating each well of microtiter plates (obtained from NUNC) with 50 μL of the above solution at 4° C. over night, each well was washed twice with PBS (composition: 13.7 mM NaCl, 0.27 mM KCl, 0.43 mM Na2HPO4, 0.14 mM KH2PO4) and blocked with 300 μl of 1% skim milk in PBS for 30 min. Additionally, each well was washed twice with PBS and added 50 μl of substrate DNA solution (0.04 pmol/μl) diluted to one fiftieth with NTE buffer (composition: 1M NaCl, 10 mM Tris-HCl (pH8.0), 1 mM EDTA). The microtiter plates were kept at room temperature for 30 min. Then, each well was washed twice with PBS and once with H2O.
Subsequently, in the each well prepared above were added 45 μl of the reaction buffer prepared from 12 μl of the buffer (composition: 150 mM MOPS (pH 7.2), 75 mM MnCl2, 50 mM 2-mercaptoethanol, 25% glycerol, 500 μg/ml bovine serum albumin-fraction V), 1 μl of target DNA (5 pmol/μl), and 32 μl of the distilled water. Additionally, 6 μl of either a test compound in DMSO or DMSO for positive control (PC) was mixed with the above reaction buffer, then 9 μl of an integrase solution (30 pmol) was added and mixed well. In the well of negative control (NC) was added 9 μl of the integrase dilution buffer (composition: Hepes (pH7.6), 400 mM potassium glutamate, 1 mM EDTA, 0.1% NP-40, 20% glycerol, 1 mM DTT, 4M urea).
The microtiter plates were incubated at 30° C. for 1 hour. The reaction solution was removed and each well was washed twice with PBS. Subsequently, each well of the microtiter plates was filled with 100 μl of anti-digoxigenin antibody labeled with alkaline phosphatase (Sheep Fab fragment: obtained from Boehringer) and incubated at 30° C. for 1 hour. Then, each well was washed twice with 0.05% Tween20 in PBS and once with PBS. Next, 150 μl of the Alkaline phosphatase reaction buffer (composition: 10 mM p-Nitrophenylphosphate (obtained from Vector Laboratories), 5 mM MgCl2, 100 mM NaCl, 100 mM Tris-HCl (pH 9.5)) was added in each well. The microtiter plates were incubated at 30° C. for 2 hours. The optical density (OD) at 405 nm of each well was measured and the percent inhibition was determined by the following expression. The percent inhibition (%)=100[1−{(C abs.−NC abs.)/(PC abs.−NC abs.)}] • C abs.; the OD of the well of the • NC abs.: the OD of the negative control (NC) • PC abs.: the OD of the positive control (PC)
When the percent inhibition (%) is X % at the concentration of x μg/ml and the percent inhibition (%) is Y % at the concentration of y μg/ml, one of which is more than 50% and the other is less than 50%, IC50 can be determined by the following expression. IC50(μg/ml)=x−{(X−50),(x−y)/(X−Y)}
Compound No. in the Table 1 is the same as compound No. of the above example.

| Compound | melting point [°C] | IC50 (integrase) [µg/mL] | IC50 (integrase; read-out: IC50 (converted)) [nM] |
| --- | --- | --- | --- |
| CN1CC(C(=O)c2coc(Cc3ccc(F)cc3)c2)=C(O)C1=O | 158 to 160 |  |  |
| COc1ccccc1Cc1ccc(C(=O)C2=C(O)C(=O)N(C(C)C)C2)o1 | 123 to 124 |  |  |
| CC(C)N1CC(C(=O)c2ccc(Cc3cccc4ccccc34)o2)=C(O)C1=O | 165 to 166.5 |  |  |
| CC(C)Oc1cccc(Cc2ccc(C(=O)C3=C(O)C(=O)N(C(C)C)C3)o2)c1 | 98 to 99 |  |  |
| COc1cc(F)ccc1Cc1ccc(C(=O)C2=C(O)C(=O)N(C(C)C)C2)o1 | 112 to 113 |  |  |
| CC(C)Oc1cc(F)ccc1Cc1ccc(C(=O)C2=C(O)C(=O)N(C(C)C)C2)o1 | 98 to 100 |  |  |
| CC(C)N1CC(C(=O)c2ccc(Cc3ccc(F)cc3C(N)=O)o2)=C(O)C1=O | 215 to 218 |  |  |
| CCN1CC(C(=O)c2oc(S(C)(=O)=O)cc2Cc2ccc(F)cc2)=C(O)C1=O | 154 to 157 |  |  |
| CN1CC(C(=O)c2oc(C3CCS(=O)(=O)CC3)cc2Cc2ccc(F)cc2)=C(O)C1=O | 200 to 203 |  |  |
| CC(C)N1CC(C(=O)c2occc2Cc2ccc(F)cc2)=C(O)C1=O | 197 to 199 |  |  |
| Cc1oc(C(=O)C2=C(O)C(=O)N(C)C2)c(Cc2ccc(F)cc2)c1C | 202 to 204 |  |  |
| CCN1CC(C(=O)c2oc(C(C)(C)C)cc2Cc2ccc(F)cc2)=C(O)C1=O | 141 to 143 |  |  |
| CC(C)N1CC(C(=O)c2oc(C(C)(C)C)cc2Cc2ccc(F)cc2)=C(O)C1=O | 146 to 147 |  |  |
| CC(C)N1CC(C(=O)c2c[nH]c(Cc3ccc(F)cc3)n2)=C(O)C1=O | 220 |  |  |
| CC(C)N1CC(c2cc(OCc3ccccc3)ncn2)=C(O)C1=O | 177 to 178 |  |  |
| CC(C)(C)N1CC(c2cc(CCc3ccccc3)ncn2)=C(O)C1=O | 199 to 200 |  |  |
| CC(C)N1CC(c2nccc(OCc3ccccc3)n2)=C(O)C1=O | 155 to 157 |  |  |
| CC(C)N1CC(c2cc(CCc3ccccc3)cnn2)=C(O)C1=O | 182 to 184 |  |  |
| O=c1c(O)c(-c2ncc(Oc3ccccc3)cn2)oc2ccccc12 | 212 |  |  |

| Compound | melting point [°C] | IC50 (integrase) [µg/mL] | IC50 (integrase; read-out: IC50 (converted)) [nM] |
| --- | --- | --- | --- |
| CN(C)C(=O)c1cc(OCc2ccc(F)cc2)c2c(=O)c(O)c(-c3ncnn3C)oc2c1 | 227 to 229 |  |  |
| COC(=O)c1cc(OCc2ccc(F)cc2)c2c(=O)c(O)c(-c3ncnn3C)oc2c1 | 253 to 255 |  |  |
| Cn1ncnc1-c1oc2c(Br)ccc(OCc3ccc(F)cc3)c2c(=O)c1O | 220 to 223 |  |  |
| Cn1ncnc1-c1oc2cc(C(N)=O)cc(OCc3ccc(F)cc3)c2c(=O)c1O | 257 to 258 |  |  |
| COCNC(=O)c1cc(OCc2ccc(F)cc2)c2c(=O)c(O)c(-c3ncnn3C)oc2c1 | 220 to 221 |  |  |
| CN(C)C(=O)c1ccc(OCc2ccc(F)cc2)c2c(=O)c(O)c(-c3ncnn3C)oc12 | 246 to 247 |  |  |
| Cn1ncnc1-c1oc2cccc(OCCc3ccc(F)cc3)c2c(=O)c1O | 215 to 217 |  |  |
| 3-hydroxy-1-isopropyl-4-(6-phenethylpyrimidine-4-yl)-1,5-dihydropyrrole-2-one [Compound H-7] |  | 0.68 |  |
| CN1CC(C(=O)c2ncoc2Cc2ccc(F)cc2)=C(O)C1=O (as salt: salt) | 257 |  |  |
| CC(C)N1CC(C(=O)c2ccc(Cc3ccc(F)cc3)o2)=C(O)C1=O [Compound A-7, 4-[5-(4-Fluorobenzyl)furan-2-carbonyl]-3-hydroxyl-1-isopropyl-1,5-dihydropyrrole-2-one] | 155 to 157 |  | 2210 |
| CN1CC(C(=O)c2cccc(Cc3ccc(F)cc3)c2)=C(O)C1=O [Compound A-12-a, 4-[3-(4-Fluorobenzyl)benzoyl]-3-hydroxy-1-methyl-1,5-dihydropyrrole-2-one] | 135 to 137 |  | 1010 |
| O=C(C1=C(O)C(=O)N(C2CC2)C1)c1ccc(Cc2ccc(F)cc2)o1 [Compound A-17, 1-Cyclopropyl-4-[5-(4-fluorobenzyl)furan-2-carbonyl]-3-hydroxy-1,5-dihydropyrrole-2-one] | 158 to 159 |  | 2340 |
| CCCCN1CC(C(=O)c2ccc(Cc3ccc(F)cc3)o2)=C(O)C1=O [Compound A-17-c, 1-Butyl-4-[5-(4-fluorobenzyl)furan-2-carbonyl]-3-hydroxy-1,5-dihydropyrrole-2-one] |  |  | 2630 |
| CN1CC(c2cc(OCc3ccc(F)cc3)ncn2)=C(O)C1=O [Compound B-12-b, 4-[6-(4-Fluorobenzyloxyl)pyrimidine-4-yl]-3-hydroxy-1-methyl-1,5-dihydropyrrole-2-one] |  |  | 666 |
| O=c1c(O)c(-c2nnc(Cc3ccc(F)cc3)o2)oc2ccccc12 [Compound C-26, 2-[5-(4-fluorobenzyl)-[1,3,4]-oxadiazole-2-yl]-3-hydroxy-4H-1-benzopyrane-4-one] |  |  | 1060 |
| Cc1nc(=O)c(O)c(-c2ccc(Cc3ccc(F)cc3)cn2)[nH]1 [Compound G-7, 6-[5-(4-fluorobenzyl)pyridine-2-yl]-5-hydroxy-2-methyl-1H-pyrimidine-4-one] |  |  | 1540 |
| CCN1CCC(C(=O)c2ccc(Cc3ccc(F)cc3)o2)=C(O)C1=O [Compound I-4, 1-ethyl-4-[5-(4-fluorobenzyl)furan-2-carbonyl]-3-hydroxy-5,6-dihydro-1H-pyridine-2-one] |  |  | 1460 |
| O=C(c1ccc(Cc2ccc(F)cc2)o1)c1[nH]ccc(=O)c1O [Compound L-4, 2-[5-(4-fluorobenzyl)furan-2-carbonyl]-3-hydroxy-1H-pyridine-4-one] |  |  | 1560 |

Further lines, with some results ahead:

| melting point [°C] | Compound | IC50 (integrase) [µg/mL] | IC50 (integrase; read-out: IC50 (converted)) [nM] |
| --- | --- | --- | --- |
| 105 to 106 | COCCN1CC(C(=O)c2ccc(Cc3ccc(F)cc3)o2)=C(O)C1=O |  |  |
| 157 to 159 | O=C(C1=C(O)C(=O)N(C2CCCC2)C1)c1ccc(Cc2ccc(F)cc2)o1 |  |  |
| 172 | CC(O)CN1CC(C(=O)c2ccc(Cc3ccc(F)cc3)o2)=C(O)C1=O (stereo not shown) |  |  |
| 178 to 179 | O=C1NCC(C(=O)c2ccc(Cc3ccc(F)cc3)o2)=C1O |  |  |
| 230 to 231 | CN1CC(C(=O)c2ncc(Cc3ccc(F)cc3)s2)=C(O)C1=O |  |  |
| 181 to 183 | CN1CC(C(=O)c2sccc2Cc2ccc(F)cc2)=C(O)C1=O |  |  |
| 150 to 151 | CN1CC(C(=O)c2cccn2Cc2ccc(F)cc2)=C(O)C1=O |  |  |
| 105 to 106 | CC(C)N1CC(c2ncnc(OCc3ccc(F)cc3)n2)=C(O)C1=O |  |  |
| 208 to 210 | CC(C)N1CC(c2ncc(CCc3ccc(F)cc3)s2)=C(O)C1=O |  |  |
| 164 to 166 | COc1ccc(CN2CC(c3ccc(Cc4ccc(F)cc4)cn3)=C(O)C2=O)cc1 |  |  |
| 167 to 168 | CN1CC(c2cc(CCc3ccc(F)cc3)ccn2)=C(O)C1=O |  |  |
| 167 to 168 | CC(C)N1CC(c2cc(CCc3ccc(F)cc3)ccn2)=C(O)C1=O |  |  |
| 205 to 207 | CC(C)N1CC(c2ccc([S+]([O-])c3ccc(F)cc3)cn2)=C(O)C1=O (stereo not shown) |  |  |
| 222 to 223 | O=C1C(O)=C(c2cc(CCc3ccccc3)ncn2)CN1Cc1ccccc1 |  |  |
| 227 to 230 | CN1CC(c2nccc(OCc3ccc(F)cc3)n2)=C(O)C1=O |  |  |
| 158 to 160 | CN1CC(c2ncc(CCc3ccc(F)cc3)cn2)=C(O)C1=O |  |  |
| 177 to 179 | COCCNC(=O)c1cc(=O)c(O)c(C(=O)c2ccc(Cc3ccc(F)cc3)o2)o1 |  |  |
| 128 to 130 | COCn1ccc(C(=O)c2ccc(Cc3ccc(F)cc3)o2)c(O)c1=O |  |  |
